# Measured values reported in patent US12691199B2, “Mussel-inspired photoreactive instant glue for environmental and biomedical applications” (KING ABDULLAH UNIVERSITY OF SCIENCE AND TECHNOLOGY, priority 2022, dated 2026).
# Assay: Photocuring / inverted vial test of aqueous adhesive solution
# Type: physicochemical
# Settings: aqueous solution with LAP 50.9 mM, 395 nm light
# Procedure: The minimum concentration of the monomer and the crosslinker that leads to a solid material after curing is 892.8 mM and 161.8 mM, respectively. The high hydrophilicity of both compounds allows the formation of a highly concentrated aqueous solution. After the photoinitiator (LAP) addition and the application of 395 nm wavelength light, radicals are formed, and a polymeric crosslinked network is created according to the reaction (FIG. 9). The solution solidifies after 10 sec of exposure to the UV light (FIGS. 10A-B). FIG. 10A has a vial (892.8 mM KDOPA-MA and 161.8 mM (KDOPA)2-DMA) and FIG. 10B (297.6 mM KDOPA-MA and 53.9 mM (KDOPA)2-DMA). In both cases, the LAP concentration was constant (50.9 mM) and the UV light was applied for 10 sec. When the concentration of the compounds decreases, the solution remains liquid and becomes cloudier after curing. […] FIG. 11A illustrates 15% crosslinker molar ratio. FIG. 11B illustrates 45% crosslinker molar ratio.
# The adhesive was prepared using the formulation of Table 1. An aqueous solution of LAP photoinitiator (15 mg/ml), KDOPA-MA (350 mg/ml) and (KDOPA)2-DMA (145 mg/ml) was prepared by mixing and vortexing for 10 sec. Throughout the text this formulation mentioned KDopa glue. When KDOPA-MA was replaced with KY-MA (the (KDOPA)2-DMA crosslinker remains the same) disclosed embodiments have the KY glue. […]
row,minimum concentration that leads to a solid material after curing [mM],Substance
1,161.8,Lys-DOPA dimethacrylate [(KDOPA)2-DMA]
2,892.8,Lys-DOPA methacrylate [KDOPA-MA]
